Laboratory results taken from the NIST ThermoML archive (doi:10.1021/je800751m).

Assay: excess molar enthalpy (molar enthalpy of mixing); xn = mol fraction of the nth substance listed
Conditions: 298.15 K, 101 kPa, Liquid, Flow calorimetry

C1CCCCC1 [cyclohexane] + CCCCO
Conditions | excess molar enthalpy [kcal/mol]
x1 = 0.0503 | 0.0163
x1 = 0.0998 | 0.0346
x1 = 0.1502 | 0.052
x1 = 0.1998 | 0.0685
x1 = 0.2502 | 0.0836
x1 = 0.2997 | 0.0974
x1 = 0.35 | 0.1103
x1 = 0.4002 | 0.122
x1 = 0.4503 | 0.1321
x1 = 0.5003 | 0.1404
x1 = 0.5501 | 0.1466
x1 = 0.5997 | 0.1505
x1 = 0.6501 | 0.1517
x1 = 0.7002 | 0.1498
x1 = 0.7501 | 0.1445
x1 = 0.7996 | 0.1355
x1 = 0.85 | 0.123
x1 = 0.9 | 0.105
x1 = 0.9496 | 0.0799
